The text below walks through data of patent US10201507B2, “Modulators of intracellular chloride concentration for treating fragile X syndrome” (NEUROCHLORE, priority 2012, dated 2019).

One assay concerns CA3 pyramidal cells. Briefly: Single GABAA channel recordings of driving force of GABA (DFGABA) in hippocampal slices, drug applied to slice. The settings on record: FXS neurons at P0 (birth); oxytocin 1 μM. It is filed as cell-based, mouse. On the procedure: Mice lacking Fmr1 (referred to as Fmr1^−/−) were bred in our animal facility. […] For all experiments, Fmr1^−/− mice were used with wild-type littermates as a control group. The offspring were used for experiments at E18, P0, P2, P4, P7, P9, P15 and P30. Experiments were carried out on offspring of either sex and in a blind manner at E18 and P0.
Experiments were performed on fetuses and neonatal wild type and Fragile X mice from the embryonic day […] to the postnatal day P38 (term is E21). All of the research was performed in compliance with the national guidelines on human care and use of laboratory animals and approved by INSERM.
Hippocampal slices (300-500 μm thick) were prepared using a Microm tissue slicer (International GmbH, Germany) as described previously (Tyzio et al., 2006, 2008). Slices were kept in oxygenated (95% O2/5% CO2) artificial cerebrospinal fluid (ACSF) of the following composition (in mM): NaCl 126, KCl 3.5, CaCl2 2.0, MgCl2 1.3, NaHCO3 25, NaH2PO4 1.2 and glucose 11 (pH 7.4) at room temperature (20-22° C.) at least 1 hour before use.
For recordings, slices were placed into a conventional fully submerged chamber superfused with ACSF at a rate of 2-3 ml/min at room temperature. Patch clamp recordings from visually identified CA3 pyramidal cells in cell-attached configuration were performed using EPC-10 amplifier (HEKA Elektronik Dr. Schulze GmbH, Lambrecht/Pfalz, Germany). Patch pipette solution for recordings of single GABAA channels contained (in mM): NaCl 120, KCl 5, TEA-Cl 20, 4-aminopyridine 5, CaCl2 0.1, MgCl2 10, glucose 10, Hepes-NaOH 10 buffered to pH 7.2-7.3 and GABA 2 μM. Analysis of currents through single channels and current-voltage relationships were performed using Clampfit 9.2 (Axon Instruments, Union City, Calif.). Recordings were digitized (10 kHz) online with Digidata-1200 interface card (Axon Instruments, Union City, Calif.) and analyzed offline with Axon package, MiniAnalysis (S (Synaptsoft, Decatur, Ga.), and Origin (Microcal Software, Northampton, Mass.). […]

Another assay has as its system hippocampal slices. Description: Extracellular field potentials / spike frequency in hippocampal slices at P15 on isoguvacine. In kind it is cell-based, mouse. The settings on record: for normalized spike frequency: P15, isoguvacine (10 μM). From the text: Recording were made in the hippocampal slices using tungsten wire electrodes (diameter: 50 μm, California Fine Wire, Grover Beach, Calif.) and a low-noise multichannel DAM-8A amplifiers (WPI, GB; […]; gain: ×1000). The signals were digitized using an analogue-to-digital converter (Digidata 1440A, Axon Instruments, USA). pCLAMP 10.1, Clampfit 10.1 (Axon Instruments, USA), MiniAnalysis 6.03 (Synaptosoft, Decatur, Calif.) and Origin 7.5 (Microcal Software, USA) programs were used for the acquisition and analysis of the synaptic activities. Sampling interval per signal was 100 microseconds (10 kHz).
To test whether depolarizing actions of GABA were associated with neuronal excitation, the effect of the GABAA receptor agonist isoguvacine was tested. […] To test whether maternal treatment with bumetanide before delivery switches the action of GABA from excitatory to inhibitory in offsprings at P15, pregnant females were treated orally 1 day before delivery with bumetanide (2-2.5 mg/kg in drinking water) and juvenile offspring neurons recorded at P15. […] Therefore, excitatory actions of GABA during delivery produce long term deleterious effects on electrophysiological parameters of FXS juvenile neurons. In FXS mice, GABAergic inputs are excitatory and contribute to hyperexcitability of the network. Bumetanide decreases [Cl^−]i and consequently reduces contribution of excitatory GABAergic inputs in the overall network activity.

SMILES strings stand for the structures. Entries after “also recorded” stand apart in the source; their conditions may differ.

In the case of `CC[C@H](C)[C@@H]1NC(=O)[C@H](Cc2ccc(O)cc2)NC(=O)[C@@H](N)CSSC[C@@H](C(=O)N2CCC[C@H]2C(=O)N[C@@H](CC(C)C)C(=O)NCC(N)=O)NC(=O)[C@H](CC(N)=O)NC(=O)[C@H](CCC(N)=O)NC1=O` [oxytocin], the “Effect on DFGABA (in words)” value in the assay on CA3 pyramidal cells was “shift it to hyperpolarization; also recorded: shifted DFGABA”.
Regarding `O=C(O)C1=CCNCC1` [isoguvacine], the normalized spike frequency in the assay with hippocampal slices (FXS mice) was 165.8±13.5%; in the assay on hippocampal slices (WT mice) it was 67.9±6.1%. The “Effect on field potential recordings (in words)” value in the assay on hippocampal slices (naive neurons, P15, isoguvacine 2 μM) is given as “inhibited or did not affect field potential recordings”.
